Read-outs that look alike come from different tables or passages of the source.
Legend:
AChE from electric eel = AChE from electric eel (Electrophorus electricus, UniProt O42275); experiment: biochemical; settings: mean of three independent measurements, read-out: AChE (IC50 ± SD)
Source text: The AChE inhibitory potential of the synthesized tryptamine derivatives was investigated using a modified Ellman’s method. In this enzymatic assay, thiocholine, the product of enzymatic hydrolysis, lacks a substantial chromophore for UV detection. Therefore, Ellman’s reagent (DTNB) was employed as the chromogenic chemical. Ellman’s procedure for the in vitro acetylcholinesterase inhibition assay is based on a two-step reaction involving the chemical components DTNB (5,5-dithiobis(2-nitro) benzoic acid), a hydrolyzed substrate (thiocholine), and the enzyme AChE [59]. In the first step, the substrate acetylthiocholine iodide undergoes hydrolysis catalyzed by the AChE enzyme, resulting in the formation of thiocholine and acetic acid. In the second step, TNB (5-thio-2-nitrobenzoic acid) is generated by the reaction between Ellman’s reagent (DTNB) and thiocholine through an electron-shifting process to sulfur. […] Higher enzyme activity is reflected by an increase in absorbance at this wavelength. The formation of TNB is directly associated with the hydrolysis of acetylthiocholine iodide. Each reaction was initiated by taking a 2 mL working solution, which consisted of 150 µL of the sample (either test compounds or positive control), 50 µL of 0.22 units/mL acetylcholinesterase enzyme from electric eel origin (AChE, E.C. 3.1.1.7, in lyophilized powder, ≥1000 unit), and sodium phosphate buffer (0.1 M, pH 7.4), making it up to a total of 2 mL. The working solution was then incubated at room temperature ([…]) for 15 min, after which 1 mL of Ellman’s solution (200 µL of 75 mM ACTI and 500 µL of 10 mM DTNB in 15 mL sodium phosphate buffer) was added. The stock solutions of tryptamine analogs were prepared in dimethyl sulfoxide (DMSO) 100%. […] All chemicals were purchased from Sigma-Aldrich, St. Louis, MO, USA and TCI Tokyo Chemical Industry Co., Ltd., Saitama, Japan. […] A negative control reaction was also performed under the same conditions but without the inclusion of samples. In this assay, the blank consisted of sodium phosphate buffer. Each experiment was conducted in triplicate.
The percentage of acetylcholinesterase inhibition activity for each tested dilution was calculated using the following equation: Percent inhibition activity%=Absorbance of control−Absorbance of test/Absorbanec of control×100
The results were then presented in a tabular format as the mean IC50 ± SD. The IC50 values, which represent the half-maximal inhibitory concentration, were determined by creating a graph that relates different concentrations (µM) to the percent inhibition (%) using the linear regression method provided by GraphPad Prism software 7 [61, 62, 63].

[1] = target: T1, MAO-B extracted from the rat brain (Rattus norvegicus, UniProt P19643); experiment: MAO-B inhibition, Amplex Red monoamine oxidase assay kit; assay type: biochemical
T1 construct: Synaptosomes containing the MAO enzyme were isolated from the rat brain; from tissue; host or cells: rat brain synaptosomes (Dawley rats)
T1 sequence (P19643 1-520): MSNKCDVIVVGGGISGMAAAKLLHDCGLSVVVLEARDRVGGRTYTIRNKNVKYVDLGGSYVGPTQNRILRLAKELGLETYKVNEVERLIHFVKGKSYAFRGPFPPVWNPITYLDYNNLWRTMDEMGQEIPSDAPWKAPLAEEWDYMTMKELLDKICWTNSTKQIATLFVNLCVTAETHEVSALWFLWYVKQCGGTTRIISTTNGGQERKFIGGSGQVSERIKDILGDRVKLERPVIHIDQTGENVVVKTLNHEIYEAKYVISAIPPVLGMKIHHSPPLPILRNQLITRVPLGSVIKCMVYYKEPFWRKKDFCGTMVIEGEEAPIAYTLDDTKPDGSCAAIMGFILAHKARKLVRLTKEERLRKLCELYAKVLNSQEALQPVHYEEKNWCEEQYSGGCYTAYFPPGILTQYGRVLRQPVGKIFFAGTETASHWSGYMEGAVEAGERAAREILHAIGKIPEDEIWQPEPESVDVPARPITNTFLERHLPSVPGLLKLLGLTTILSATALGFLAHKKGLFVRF
Source text: Synaptosomes containing the MAO enzyme were isolated from the rat brain by the method of Hojas, with some modification. Three Dawley rats of any sex with weight ranging from 200–250 gm were decapitated after administration of an anesthetic agent (mixture of propofol and xylocaine). Immediately, complete brains were removed from the bed of ice on a petri dish, and the brains were washed with ice-chilled PBS (phosphate-buffered saline) of pH 7.0, 0.1M and normal saline. Then, each brain, weighing approximately 1 g, was suspended into 10 mL of ice-chilled […] sucrose pH 7.4 20% w/v accordingly and homogenized for 10 min using Daihan homogenizer HG-15A. Brain homogenate was transferred into a centrifuge tube and centrifuged at a speed of 7500× g rpm for 15 min at 4 °C by a Scan Speed 1730R Microcentrifuge from Labo Gene, Marlborough, MA, USA. The supernatant was preserved, and the solid brain mass debris present on the bottom was discarded. The supernatant was then diluted with ice-chilled distilled PBS as per need and centrifuged over 12,000× g rpm for 20 min at 4 °C through the mentioned microcentrifuge. Then, pellets containing a white solid mass at the bottom (synaptosomes containing the MAO enzyme) were stored, and each pallet was diluted with PBS buffer. Aliquoting of synaptosomes was carried out and stored at −70 °C till the assay was performed.
For the evaluation of the MAO-B inhibition potential of synthesized compounds, the Amplex® Red Monoamine Oxidase Assay kit was purchased from Invitrogen Molecular Probes, Thermo Fisher Scientific, Waltham, MA, USA. This is a one-step fluorometric bioassay that principally detects the resorufin (7-Hydroxy-3H-phenoxazin-3-one), which is a fluorescent moiety formed in the presence of Horseradish Peroxidase (HRP) by the oxidation of nonfluorescent compound Amplex Red (AMR), chemically known as 10-acetyl-3,7-dihydroxyphenoxazine. The hydrogen peroxide (H2O2) was synthesized during the conversion of substrate to its aldehyde product by MAO enzyme action. […] The assay was performed according to the instruction of the manufacturer (http://tools.thermofisher.com/content/sfs/manuals/mp12214.pdf; accessed on 20 October 2020), with a few modifications. The Amplex Red reagent kit was used as compared to other H2O2 detection probes because of its stability and the stability of resorufin, which is a reaction product along with the longer wavelength spectra. Extracted MAO-B enzyme from rat brain was diluted in sodium phosphate buffer of pH 7.4, 0.25 M. The substrate for MAO-B was benzylamine. Pargyline was used as a standard. All the stock solutions of inhibitors were prepared in dimethyl sulfoxide (DMSO) 100%. Different dilutions of inhibitors were prepared in reaction buffer to obtain less than 2% (v/v) DMSO for evading false positive results. The final reaction volume contained a two-fold lower concentration of enzyme and the inhibitors. […] H2O2 working solution was diluted in the reaction buffer to prepare a final concentration of 10 µM H2O2 and used as positive control, and the reaction buffer with no H2O2 was the negative control. The reaction was started by adding 100 µL of working solution in each well of a black, opaque, 96-well microplate holding the controls and samples. A total of 50 µL of the MAO enzyme solution was added into each well. The composition of the working solution was 400 µM Amplex Red reagent, reaction buffer, 2 U/mL HRP, and 2 mM substrate solution. The possible interference that can be produced by the fluorescence of the compounds generated within the reaction mixture because of non enzymatic inhibition was eradicated by the addition of samples with Amplex Red only in the reaction buffer. The fluorescence of the blank (control with no enzyme) was subtracted to correct the background fluorescence. All the reactions were incubated at 37 °C for 30 min. […]

Human recombinant COX-2 = target: T2, Human recombinant COX-2 (Homo sapiens, UniProt P35354); experiment: In vitro fluorometric COX-2 inhibition assay kit; assay type: biochemical; settings: compounds tested at 100 µM, mean of three independent measurements; for inhibition at 100 µM: read-out: COX-2 (%Inhibition ± SD)
T2 construct: purchased BioVision (kit manual cited); the text also says reagents came from Sigma-Aldrich K547
T2 sequence (P35354 18-604): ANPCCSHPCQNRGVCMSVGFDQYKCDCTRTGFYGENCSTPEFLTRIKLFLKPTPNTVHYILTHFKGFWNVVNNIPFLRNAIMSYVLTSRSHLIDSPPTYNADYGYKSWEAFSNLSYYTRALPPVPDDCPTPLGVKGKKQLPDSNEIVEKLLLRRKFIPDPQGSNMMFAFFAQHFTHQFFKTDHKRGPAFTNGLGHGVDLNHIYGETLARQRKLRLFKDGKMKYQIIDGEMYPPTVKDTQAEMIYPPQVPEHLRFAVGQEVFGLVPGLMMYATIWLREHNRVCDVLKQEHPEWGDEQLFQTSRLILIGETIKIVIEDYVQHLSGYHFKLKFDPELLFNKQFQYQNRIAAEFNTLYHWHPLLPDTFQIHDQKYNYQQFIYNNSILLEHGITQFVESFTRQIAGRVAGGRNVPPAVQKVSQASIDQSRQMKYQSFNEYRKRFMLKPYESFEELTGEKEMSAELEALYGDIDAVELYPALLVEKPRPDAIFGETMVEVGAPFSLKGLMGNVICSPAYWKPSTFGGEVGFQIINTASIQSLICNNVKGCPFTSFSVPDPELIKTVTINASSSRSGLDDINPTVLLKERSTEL
Experimental: The fluorometric COX-2 inhibition assay kit provides a simple, fast, sensitive, and consistent method appropriate for carrying out high-throughput analysis for COX-2 inhibitors. The assay is based on the formation of prostaglandin G2 (PG2), which is an intermediate made from arachidonic acid under the action of the COX-2 enzyme. The reagents were prepared, and testing procedures were executed according to these recommended guidelines. The fluorescence of the samples was measured in an opaque 96-well plate at a temperature of 37 °C, precisely 5 min after the initiation of the experiment, utilizing a microplate reader from Thermo Scientific, USA. All compounds were tested at a concentration of 100 µM in a DMSO-1% solution. […] Dilutions were prepared in sodium phosphate buffer 0.1 M, pH 7.4. All the reagents were purchased from Sigma-Aldrich, St. Louis, MO, USA. The mean fluorescence values were calculated to determine the percentage of inhibition achieved by each compound. […] Each experiment was conducted in triplicate, and the percent inhibition was calculated using the following formula: % Inhibition=fluorescence of control−fluorescence of test compound/fluorescence of control×100

[2] = MAO-B extracted from rat brain, substrate benzylamine, mean of three independent measurements, read-out: MAO-B (IC50 ± SD)

AChE from electric eel, sequence (O42275 24-633): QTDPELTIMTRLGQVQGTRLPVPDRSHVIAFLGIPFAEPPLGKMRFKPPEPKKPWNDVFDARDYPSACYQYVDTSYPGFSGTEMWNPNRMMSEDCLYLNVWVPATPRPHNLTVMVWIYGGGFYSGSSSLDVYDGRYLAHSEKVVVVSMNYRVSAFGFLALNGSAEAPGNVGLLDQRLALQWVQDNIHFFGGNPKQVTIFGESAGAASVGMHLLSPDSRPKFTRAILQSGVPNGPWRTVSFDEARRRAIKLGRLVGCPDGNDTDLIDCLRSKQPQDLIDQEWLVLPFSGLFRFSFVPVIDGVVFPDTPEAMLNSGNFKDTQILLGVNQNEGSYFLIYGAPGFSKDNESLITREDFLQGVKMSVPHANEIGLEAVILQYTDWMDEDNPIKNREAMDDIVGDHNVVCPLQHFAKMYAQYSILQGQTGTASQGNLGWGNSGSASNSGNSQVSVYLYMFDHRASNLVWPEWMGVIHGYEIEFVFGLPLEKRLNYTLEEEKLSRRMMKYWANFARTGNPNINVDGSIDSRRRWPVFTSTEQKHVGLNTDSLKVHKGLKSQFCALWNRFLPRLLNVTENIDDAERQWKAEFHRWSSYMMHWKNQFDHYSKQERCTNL

Row | Compound | IC50 (AChE from electric eel) [µM] | IC50 [1, 2] [µM] | inhibition at 100 µM (Human recombinant COX-2) [%] | IC50 [1] [µM] | COX-2 (%Inhibition ± SD) (Human recombinant COX-2; 100 µM) [%]
1 | O=C(CNCCc1c[nH]c2ccccc12)c1ccc(F)cc1F [SR13] | 9.68 ± 0.16 | 50.6 ± 0.64 | 73.8 ± 2.37 |  | 
2 | NCCc1c[nH]c2ccccc12 [Tryptamine] | 88.26 ± 0.24 | 288.1 ± 0.32 | 57.3 ± 4.96 |  | 
3 | COc1ccc(C(=O)CNCCc2c[nH]c3ccccc23)cc1 [SR17] | 8.23 ± 0.12 | 150.1 ± 0.26 | 72.8 ± 2.54 |  | 
4 | O=C(CNCCc1c[nH]c2ccccc12)c1ccccc1[N+](=O)[O-] [SR21] | 87.73 ± 0.16 | 142.1 ± 0.32 | 34.4 ± 3.34 |  | 
5 | Cc1ccc(C(=O)CNCCc2c[nH]c3ccccc23)cc1 [SR14] | 68.71 ± 0.24 | 112.2 ± 0.29 | 65.3 ± 2.65 |  | 
6 | O=C(CNCCc1c[nH]c2ccccc12)c1cccc([N+](=O)[O-])c1 [SR22] | 54.88 ± 0.19 | 56.46 ± 0.41 | 84.1 ± 4.53 |  | 
7 | O=C(CNCCc1c[nH]c2ccccc12)c1ccc(F)cc1 [SR10] | 1 ± 0.08 | 216.1 ± 0.29 | > 70 |  | 
8 | O=C(CCNCCc1c[nH]c2ccccc12)c1ccccc1 [SR25] | 0.17 ± 0.02 |  | > 70 | 85.1 ± 0.26 | 
9 | O=C(CNCCc1c[nH]c2ccccc12)c1ccc(O)c(O)c1 [SR20] | 24.97 ± 0.05 | 222.1 ± 0.32 | 68.7 ± 3.86 |  | 
10 | O=C(NCCc1c[nH]c2ccccc12)c1cc([N+](=O)[O-])cc([N+](=O)[O-])c1 [SR42] | 0.7 ± 0.21 | 43.2 ± 0.46 | > 70 |  | 
11 | O=C(CNCCc1c[nH]c2ccccc12)c1ccc(-c2ccccc2)cc1 [SR24] | 6.7 ± 0.08 |  | 79.3 ± 2.02 | 133.2 ± 0.46 | 
12 | O=C(CNCCc1c[nH]c2ccccc12)c1ccc2ccccc2c1 [SR08] | 4.36 ± 0.12 | 244.2 ± 1 | 72.3 ± 1.67 |  | 
13 | C#CCN(C)Cc1ccccc1 [Pargyline, reference compound] |  | 23.4 ± 0.32 |  |  | 
14 | O=C(CNCCc1c[nH]c2ccccc12)c1ccc([N+](=O)[O-])cc1 [SR23] | 7.33 ± 0.12 | 95.1 ± 0.43 | 69.4 ± 3.11 |  | 71.40 ± 3.11
